Experimental data reported in patent publication US10869931B2, “Polyethylene glycol-modified angiogenesis inhibitor HM-1 and application thereof” (NANJING ANJI BIOLOGICAL TECHNOLOGY CO.,LTD, priority 2016, dated 2020).
Marks after values point to notes of the source that are not given here. Where no end group is shown, it is not given here.

Key:
[1] = tested on: human retinal vascular endothelial cells (HRCEC); test: MTT proliferation of human retinal vascular endothelial cells; type: cell-based; settings: 48 h; for Inhibition rate: HRCEC proliferation; for A570 nm-A630 nm: HRCEC; for A570 nm-A630 nm / inhibition rate of HRCEC proliferation: MTT
Procedure: The activity of the angiogenesis inhibitor polypeptide to inhibit proliferation of human retinal vascular endothelial cells was examined by MTT assay. HRCEC cells were cultured in a 37° C., 5% CO2 incubator to a density of 90% or more, and collected by trypsinization. The cells were resuspended in the culture medium and counted under a microscope to adjust the cell concentration to 3.0×10^4 cells/mL. The cell suspension was inoculated into a 96-well plate at 100 μL per well and cultured overnight at 37° C. in a 5% CO2 incubator. After the cells were completely adhered, the angiogenesis inhibitor polypeptide was added as the administration group, and Avastin was used as the positive control group, and the culture media without any drug was used as a blank control group, and the culture media were diluted to each predetermined concentration. Each dilution was separately added to a 96-well plate at 100 μL per well and incubated for 48 h at 37° C. in a 5% CO2 incubator. 20 μL of 5 mg/mL MTT was added to each well of a 96-well plate and incubation was continued for 4 h. The medium was aspirated and dissolved in 100 μL of DMSO per well. […] The formula is as follows: PI (%)=1−administration group/negative group
The test was repeated 3 times independently. The results obtained by the test were expressed as mean±SD, and a statistical T test was performed. *P<0.05 was a significant difference, and **P<0.01 was a very significant difference.

sarcoma tumor cells = test: MTT proliferation inhibition, sarcoma cells; type: cell-based, human; set-up: concentration or dose not given beside the values; settings: 48 h
Procedure: (§1) The activity of mPEG-HM-1 to inhibit the growth of various tumor cells was examined by MTT assay. The tumor cells were cultured to a concentration of 90% or more in a 37° C., 5% CO2 incubator and collected by trypsinization. The cells were resuspended in the culture medium and counted under a microscope to adjust the cell concentration to 2×10^4 cells/mL, the cell suspension was inoculated into a 96-well plate at 100 μL/well and incubated overnight at 37° C. in a 5% CO2 incubator. mPEG-HM-1 was diluted with the culture solution to each predetermined concentration. Docetaxel is diluted to the final concentration with the culture medium. After the cells were fully attached, each dilution was added to a 96-well plate (100 μL/well). The mPEG-HM-1 dilution was added as a drug-administered group, and docetaxel was added as a positive control group, and a culture solution without any drug was used as a negative control group. Incubate for 48 h at 37° C. in a 5% CO2 incubator. 5 mg/mL of MTT was added to a 96-well plate at 20 μL per well, and incubation was continued for 4 hours. The medium was aspirated, dissolved in 150 μL of DMSO per well, and gently mixed by shaking for 10 min. The absorbance was measured at a measurement wavelength of 570 nm and a reference wavelength of 630 nm using a microplate reader, and the rate of growth inhibition (proliferation inhibition, PI) was calculated. The formula is as follows: PI (%)=1−administration group/negative group
(§2) The test was repeated 3 times independently, and the results obtained by the test were expressed as mean±SD, and the test results are shown in Table 15 to Table 18.

various tumor cells = test: MTT proliferation inhibition, overall statements on various tumor cells; type: cell-based, human; settings: compared with the negative control
Procedure: as §1, §2

[2] = tested on: neovascularization in rat model of premature retinopathy; test: Fluctuating-oxygen rat model of premature retinopathy (endothelial nuclei count); type: in vivo; settings: day 14
Procedure: A fluctuating oxygen-induced animal model was used to randomly divide the newborn rats that were naturally delivered on the same day (within 12 hours) into three groups: the oxygenated model group, the oxygenated treatment group, and the normal control group. The oxygenated model group was subdivided into three subgroup models and along with the oxygenated treatment group was placed in a semi-closed oxygen chamber made of plexiglass. The chamber was connected to medical oxygen, and the oxygen analyzer was adjusted to a concentration of 80%±2%. After 24 hours, Nitrogen gas was introduced into the oxygen chamber, and the oxygen concentration was adjusted to 10%±2% and maintained for 24 h. This process was repeated, so that the oxygen concentration in the oxygen chamber is switched between 80% and 10% every 24 hours, and then transferred to the air for 7 days. The oxygen concentration was monitored 8 times a day, and the ambient temperature in the control cabin was 23° C.±2° C. Bedding change, adding food, changing water and replacing mother rats were performed once a day. The normal control group was placed in an animal facility environment. […] The oxygenated therapeutic components were divided into four subgroups, and on the 7th day of modeling, mPEG-SC-HM-1, mPEG2-NHS-HM-1, mPEG-ALD10k-HM-1, and mPEG-bALD-HM-1 were respectively administered by intravitreal injection. Only normal saline was administered to the oxygen model group and the control group. The administrations continued for 1 week. […] After immersion in wax, serial section at thickness of 4 μm was performed, wherein the sections were kept away from the optic disc. The sections are parallel to the sagittal plane of the cornea to the optic disc. Ten sections per eyeball were randomly selected from each eyeball to be stained with hematoxylin and eosin, and the number of vascular endothelial cells that broke through the retinal inner membrane was counted (only the vascular endothelial nucleus closely related to the inner retinal membrane was counted), and the average numbers of endothelial cells per eyeball per slice was counted.

[3] = 100 μg intravitreal for 1 week from day 7, vascular endothelial nuclei per slice
[4] = 25 μg intravitreal for 1 week from day 7, vascular endothelial nuclei breaking through inner retinal membrane per slice
[5] = 50 μg intravitreal for 1 week from day 7, vascular endothelial nuclei per slice

Substance	Inhibition rate ([1]; 60 μg/mL)	A570 nm-A630 nm ([1]; 60 μg/mL)	Inhibition rate ([1]; 80 μg/mL)	A570 nm-A630 nm ([1]; 80 μg/mL)	Inhibition rate ([1]; 100 μg/mL)	A570 nm-A630 nm ([1]; 100 μg/mL)	rate of growth inhibition (sarcoma tumor cells)	inhibition of proliferation of various tumor cells (in words) (various tumor cells)	Cell nuclei count [2, 3]	Inhibition rate ([1]; 20 μg/mL)	A570 nm-A630 nm ([1]; 20 μg/mL)	Inhibition rate ([1]; 40 μg/mL)	A570 nm-A630 nm ([1]; 40 μg/mL)	Cell nuclei count [2, 4]	inhibition rate of HRCEC proliferation ([1]; 80 μg/mL)	Cell nuclei count [2, 5]
mPEG2-NHS20k-Arg-Gly-Ala-Asp-Arg-Ala-Gly-Gly-Gly-Gly-Arg-Gly-Asp ({mPEG2‑NHS 20 kDa}-RGADRAGGGGRGD) [mPEG2-NHS20k-HM-1]	44.01%*	0.7401 ± 0.07482	54.18%**	0.6056 ± 0.07003	64.62%*	0.4677 ± 0.07601	48.91 ± 10.57%	had the best effect	7.683 ± 2.914	–	–	–	–	–	–	–
mPEG-SC20k-Arg-Gly-Ala-Asp-Arg-Ala-Gly-Gly-Gly-Gly-Arg-Gly-Asp ({mPEG‑SC 20 kDa}-RGADRAGGGGRGD) [mPEG-SC20k-HM-1]	45.71%*	0.7116 ± 0.07539	53.92%**	0.6040 ± 0.06996	66.64%*	0.4372 ± 0.0721	48.93 ± 10.53%	had the best effect	7.372 ± 2.078	–	–	–	–	–	–	–
mPEG-SC5k-Arg-Gly-Ala-Asp-Arg-Ala-Gly-Gly-Gly-Gly-Arg-Gly-Asp ({mPEG‑SC 5 kDa}-RGADRAGGGGRGD) [mPEG-SC5k-HM-1]	62.10%*	0.4968 ± 0.08679	–	–	–	–	39.42 ± 11.15%	–	–	42.22%*	0.7573 ± 0.09088	51.76%**	0.6323 ± 0.08797	9.104 ± 3.087	–	–
mPEG-bALD10k-Arg-Gly-Ala-Asp-Arg-Ala-Gly-Gly-Gly-Gly-Arg-Gly-Asp ({mPEG‑bALD 10 kDa}-RGADRAGGGGRGD) [mPEG-bALD10k-HM-1]	57.43%**	0.5669 ± 0.07609	75.19%*	0.3304 ± 0.07354	–	–	52.01 ± 12.32%	had the best effect	–	–	–	47.95%*	0.6931 ± 0.07754	–	75.19%	7.627 ± 1.892
mPEG-ALD10k-Arg-Gly-Ala-Asp-Arg-Ala-Gly-Gly-Gly-Gly-Arg-Gly-Asp ({mPEG‑ALD 10 kDa}-RGADRAGGGGRGD) [mPEG-ALD10k-HM-1]	58.62%**	0.5424 ± 0.07508	73.89%*	0.3422 ± 0.07412	–	–	53.01 ± 11.42%	had the best effect	–	–	–	48.34%*	0.6771 ± 0.07904	–	73.89%	7.581 ± 1.903
mPEG-bALD5k-Arg-Gly-Ala-Asp-Arg-Ala-Gly-Gly-Gly-Gly-Arg-Gly-Asp ({mPEG‑bALD 5 kDa}-RGADRAGGGGRGD) [mPEG-bALD5k-HM-1]	62.77%*	04958 ± 0.07902	–	–	–	–	41.42 ± 10.03%	–	–	41.82%*	0.7747 ± 0.08752	50.48%**	0.6594 ± 0.08003	8.852 ± 2.933	–	–
mPEG-ALD5k-Arg-Gly-Ala-Asp-Arg-Ala-Gly-Gly-Gly-Gly-Arg-Gly-Asp ({mPEG‑ALD 5 kDa}-RGADRAGGGGRGD) [mPEG-ALD5k-HM-1]	61.53%*	05042 ± 0.08135	–	–	–	–	38.41 ± 12.53%	–	–	42.02%*	0.7599 ± 0.08933	51.93%**	0.6301 ± 0.08011	8.927 ± 2.902	–	–
